Entries after “also recorded” stand apart in the source; their conditions may differ. Values belong to the compound of their own block, whether it stands above or below them.
Legend:
monkey eyes = settings: topical eye drops, cited from earlier work
glaucomatous monkey eyes = settings: ointment, highest concentration of 2.5% ECA, four glaucomatous monkey eyes; cited from earlier work
[1] = carboxylic acid; cited from earlier work
rabbit eyes = settings: topical eye drops, cited from earlier work
[2] = Degradation of ECA prodrugs heated at 60° C. in water/acetonitrile (HPLC-MS); assay type: physicochemical; settings: 60° C. in 50/50 water (0.1% FA)/acetonitrile (0.1% FA)
Description: Prodrugs of ECA were challenged by heating at 60° C. in 50/50 water (0.1% FA)/acetonitrile (0.1% FA), and the degradants were separated using a reverse phase HPLC equipped with a C-18 bonded stationary phase. The identification of various peaks was accomplished by mass spectrometry detector and retention time comparison with available standards.
Chromatographic separation of ethacrynic acid parent compounds and their PLA conjugated derivatives was achieved using an Agilent 1260 Infinity II LCMS equipped with an Waters Symmetry C18 column (5 μm, 4.6 mm×150 mm) as the stationary phase and acetonitrile/water as the mobile phase. The gradient separation method is outlined in Table 4. The analysis was performed at an injection volume of 10 μL, a flow rate of 1.2 mL/min and a detection wavelength of 230 nm at 25° C. Retention times for ethacrynic acid and PLA-conjugated compounds are illustrated in Table 5.
Table 6 illustrates the calculated mass and structure of all the individual intermediates and the parent compound. Calculated mass ions were extracted using a MS G6135B detector with positive and negative polarity acquisition between mass 100-1000, fragmentation at 250, gain at 1, threshold of 150, and speed of 2080 u/sec. Extracted ions and polarity for individual mass spectometry peak identification is outlined in Table 7.

[3] = Mean size of ethacrynic acid prodrug encapsulated microparticles; assay type: physicochemical
[4] = Drug release kinetics of Timolol and ethacrynic acid prodrugs from polymer microparticles; assay type: physicochemical
Description: The effect of polymer composition including monomer ratio and molecular weight, polymer end-groups (ester or acid), inherent viscosity and polymer blend ratios on particle degradation and drug release kinetics of Timolol-O-ethyl fumurate (17) was evaluated and is illustrated in FIG. 5. The rate of particle degradation was slowed and drug release was prolonged when the mole % of DL-lactide over glycolide was increased. By incorporating polymers with different monomer ratios (i.e., PLA, PLGA8515, PLGA525, PLGA5050 wherein 8515 refers to 85% DL-lactide and 15% glycolide) into the particles, it is possible to fine-tune the degradation rate of the particles to achieve a linear rate of drug release from the particles to minimize burst or lag and to extend the duration of release. […] The 78/22(PLA 5A/PLGA8515 4.5A) and 65/20/15(PLA 4A/PLGA6515 4.5A/PLGA5050 4A) polymer blends generated ideal particles for a 3-6 month linear release formulation. […] The rate of release was independent of the salt form. […] Thus, release rate is not solely dictated by the physicochemical properties of the linker, but rather must be attributed to a combination of parameters that may include linker type and site of linker conjugation.
FIG. 6 illustrates the release kinetics of ethacrynic acid-PLA(n=4)-ethyl ester (1) from PLGA microparticles. The drug was released over a period of approximately 66 days.
FIG. 8 and FIG. 9 illustrate the release kinetics of ethacrynic acid-PLA(n=4)-ethyl ester (1) and ethacrynic acid-PLA(n=6)-ethyl ester (25), respectively, from PLGA microparticles. The drug was released from a number of formulations over a period of greater than 90 days. […] Particles generated with 1% PVA in PBS was compared against particles generated in 1% PVA in water (FIG. 10).
Based upon these initial formulation screens, the formulation comprising of 1% mPEG-PLGA and 99% PLA100 4.5A:PLGA8515 5A (77:22) was selected as the lead formulation for ECA-PLA(n=4) (1) and ECA-PLA(n=6) (25) prodrugs. The particles were prepared in 1% PVA in water. The release profiles for the lead ECA-PLA(n=4) (1) and ECA-PLA(=6) (25) particle formulations are illustrated in FIG. 11.

[5] = Drug solubility in water, DMSO and DCM (HPLC of filtered supernatant); settings: thermodynamic from solid
Description: For each test, approximately 5-10 mg was transferred to a 10 mL glass vial. Aqueous or organic solvent was added to each vial to achieve an overall concentration of 50 mg/mL. After vortexing aggressively for 2-3 minutes and sonicating in a bath sonicator for 5 minutes, undissolved drug was spun down at 1200 rpm for 5 minutes to generate a pellet. The supernatant was collected and filtered through a 0.2 μm nylon syringe filter into HPLC vials for drug content analysis. Drug concentration was determined by comparing against a standard calibration curve.

[6] = Percent drug loading of ethacrynic acid prodrug microparticles (RP-HPLC); assay type: physicochemical
Description: To determine the percent drug loading (% DL), 10 mg of particles was weighed into a glass scintillation vial and dissolved with 10 mL of MeCN:water (1:1, v/v). The solution was filtered through a 0.2 μm nylon syringe filter and the drug content was determined by RP-HPLC referenced against a standard calibration curve.

[7] = In vitro stability of ethacrynic acid prodrugs at 37° C.; assay type: physicochemical; settings: 37° C.
Excerpt: As evidenced, both prodrugs of ethacrynic acid degrade steadily over the 6 day period. As the ester linkages are hydrolyzed, the parent compound is generated in a linear rate. The rate of degradation to the parent compound is faster for the shorter […] in comparison to the degradation kinetics for ethacrynic acid-PLA(n=4)-ethyl ester (1).
Approximately 94% of the ECA-PLA(n=4) prodrug (1) has been converted to free ECA by day 6, in comparison to only 56% for ECA-PLA(n=6) (25). Also, by day 6, all the initial prodrug has been degraded into intermediates and free drug respectively.

[8] = In vitro drug release kinetics of Timolol prodrug microparticles in PBS and 1% Tween 20 (pH 7.4) at 37° C.; assay type: physicochemical
Description: In vitro drug release kinetics were evaluated in a release medium composed of PBS and 1% Tween 20 (pH 7.4). Briefly, 10 mg of particles was suspended in 4 mL of the release medium The particle suspension was incubated on an orbital shaker at 150 rpm at 37° C. At various time points, 3 mL of release media was collected, and the suspension was replenished with 3 mL of fresh release media. Collected release samples were frozen and stored at −80° C. until analysis for drug content. The collected samples were filtered through a 0.2 μm syringe filter and analyzed by RP-HPLC. FIG. 17-FIG. 22 illustrate the total and parent Timolol release profile for the microparticles encapsulating bis-prodrugs of Timolol of Table 11.

[9] = Stability of Timolol prodrugs in PBS via HPLC; assay type: physicochemical; settings: PBS (100% PBS)
Description: The stability of Compound 51 was measured in 100% serum (FIG. 27A), 50% serum and 50% PBS (FIG. 27B), and 100% PBS (FIG. 27C) via HPLC. Each point on the graph is the retention time of Compound 51, parent Timolol, and 4 breakdown products at day 0, 1, 2, 3, 4, or 5 as measured. […] The concentration of the breakdown product with a retention time of 5.454 minutes was higher than the concentration of parent Timolol (retention time=4.4 minutes).
The stability of Compound 52 was measured in PBS (FIG. 28) and the stability of Compound 53 was measured in PBS (FIG. 29).

[10] = clinical trials and post-marketing clinical use; cited from earlier work
[11] = PLA100 4.5A + 1% PEG-PLGA5050, polymer 200 mg/mL
[12] = PLA100 4.5A + PLGA7525 6E (69:30) + 1% PEG-PLGA5050, polymer 200 mg/mL
[13] = PLA100 4.5A + PLGA8515 5A (77:22) + 1% PEG-PLGA5050, polymer 200 mg/mL
[14] = PLA100 4.5A + PLGA8515 5A + PLGA5050 4A (64:20:15) + 1% PEG-PLGA5050, polymer 200 mg/mL
[15] = PLA100 4.5A + PLGA8515 5A + PLGA5050 4A (64:30:5) + 1% PEG-PLGA5050, polymer 200 mg/mL
[16] = PLGA7525 4A + 1% PEG-PLGA5050, polymer 200 mg/mL

SMILES: C=C(CC)C(=O)c1ccc(OCC(=O)O)c(Cl)c1Cl [ECA, ethacrynic acid]
ocular adverse effects (monkey eyes; especially at higher doses): corneal edema and moderate diffuse superficial corneal erosion
effect on IOP (monkey eyes; monkey eyes): effective in decreasing IOP
ocular adverse effects (glaucomatous monkey eyes): mild eyelid edema, conjunctival hyperemia, and discharge
pka [1]: approximately 2.8
ocular adverse effects (rabbit eyes; especially at higher doses): corneal edema and moderate diffuse superficial corneal erosion
effect on IOP (rabbit eyes; rabbit eyes): effective in decreasing IOP

SMILES: C=C(CC)C(=O)c1ccc(OCC(=O)O[C@@H](C)C(=O)O[C@@H](C)C(=O)O[C@@H](C)C(=O)O[C@@H](C)C(=O)O[C@@H](C)C(=O)O[C@@H](C)C(=O)OCC)c(Cl)c1Cl [Compound 25, (S)-2-((S)-2-[(S)-2-((S)-2-(2-[2,3-Dichloro-4-(2-methylene-butyryl)-phenoxy]-acetoxy)-propionyloxy)-propionyloxy]-propionyloxy)-propionic acid (S)-1-((S)-1-ethoxycarbonyl-ethoxycarbonyl)-ethyl ester]
hydrolysis products [2]: hydrolyze into five intermediates
Mean size [3, 11]: 27.62 um
Mean size [3, 12]: 26.95 um
Mean size [3, 13]: 27.88 um
Mean size [3, 14]: 26.59 um
Mean size [3, 15]: 26.27 um
Mean size [3, 16]: 26.19 um
in vitro release profile of lead microparticle formulation ([4]; 1% mPEG-PLGA and 99% PLA100 4.5A:PLGA8515 5A (77:22), prepared in 1% PVA in water, FIG. 11): much more linear release profile
rate of drug release as a function of drug loading ([4]; microparticles with 13.5, 18.1, 27.4 and 38.2 % DL, FIG. 4): rate of drug release increased with increasing drug loading
solubility ([5]; DMSO, organic solvent or mixture): > 50 mg/mL
solubility ([5]; water): < 0.1 mg/mL
% Drug loading [6, 11]: 13.83%
% Drug loading [6, 12]: 11.56%
% Drug loading [6, 13]: 12.29%
% Drug loading [6, 14]: 14.22%
% Drug loading [6, 15]: 13.53%
% Drug loading [6, 16]: 12.43%
% Drug loading ([6]; theoretical loading 15): 13.5%
% Encapsulation Efficiency ([6]; theoretical loading 15): 90.0%
% Drug loading ([6]; theoretical loading 20): 18.1%
% Encapsulation Efficiency ([6]; theoretical loading 20): 90.5%
% Drug loading ([6]; theoretical loading 30): 27.4%
% Encapsulation Efficiency ([6]; theoretical loading 30): 91.3%
% Drug loading ([6]; theoretical loading 40): 38.2%
% Encapsulation Efficiency ([6]; theoretical loading 40): 95.5%
rate of degradation of the prodrug ([7]; 6 days): degraded slightly slower
prodrug converted to free ECA by day 6 ([7]; day 6): 56%

SMILES: CC(=O)OCC(=O)N(C[C@@H](COc1nsnc1N1CCOCC1)OC(=O)COC(=O)C(C)OC(=O)C(C)O)C(C)(C)C (stereo partly drawn) [Compound 53, Timolol-N-Glycolic acid-OAc-O-Glycolic acid-PLA (n = 2)-OH]
linear (4-month) drug release ([8]; in vitro): did not exhibit linear drug release; also recorded: did not consistently meet the 4-month criteria
stability / breakdown into parent Timolol and breakdown products [9]: breaks down over the course of 8 days; also recorded: a significant amount of an additional breakdown product

SMILES: CCN(CC)CCNC(=O)c1c(C)[nH]c(/C=C2\C(=O)Nc3ccc(F)cc32)c1C [Sunitinib]
hepatotoxicity [10]: observed hepatotoxicity

parent Timolol released relative to total release of prodrug and intermediates ([8]; PBS and 1% Tween 20 (pH 7.4), 37° C.): primarily as native parent Timolol
maximum release duration ([8]; in vitro, FIG. 21): approximately 70 days
SMILES: CC(=O)OCC(=O)O[C@H](COc1nsnc1N1CCOCC1)CN(C(=O)COC(C)=O)C(C)(C)C [Compound 52, Timolol-N,O-bis-Glycolic acid-OAc]
stability / breakdown into parent Timolol and breakdown products [9]: breaks down over the course of 15 days; also recorded: breaks down into parent Timolol
